Laboratory results from patent US20240226034A1, “Use of Terpenoids and Salicylates as Anesthetics and Analgesics” (THE REGENTS OF THE UNIVERSITY OF CALIFORNIA, priority 2021, published 2024).
Where “and” joins values, the source holds several entries; their conditions need not be identical. Equal values may be shown once. Entries after “also recorded” stand apart in the source; their conditions may differ.

Tests used:
[1] = target: T1, GABAA receptors (human α1 GABRA1 and rat β2 GABRB2 subunits) (UniProt P14867+P63138); experiment: Two-electrode voltage clamp of GABAA receptors expressed in Xenopus oocytes; assay type: cell-based; conditions: for effect on GABAA receptor currents: dose-response, oocytes
T1 construct: expressed in transfected cells; host or cells: Xenopus laevis oocytes (intranuclear DNA injection)
T1 sequence (P14867 28-456): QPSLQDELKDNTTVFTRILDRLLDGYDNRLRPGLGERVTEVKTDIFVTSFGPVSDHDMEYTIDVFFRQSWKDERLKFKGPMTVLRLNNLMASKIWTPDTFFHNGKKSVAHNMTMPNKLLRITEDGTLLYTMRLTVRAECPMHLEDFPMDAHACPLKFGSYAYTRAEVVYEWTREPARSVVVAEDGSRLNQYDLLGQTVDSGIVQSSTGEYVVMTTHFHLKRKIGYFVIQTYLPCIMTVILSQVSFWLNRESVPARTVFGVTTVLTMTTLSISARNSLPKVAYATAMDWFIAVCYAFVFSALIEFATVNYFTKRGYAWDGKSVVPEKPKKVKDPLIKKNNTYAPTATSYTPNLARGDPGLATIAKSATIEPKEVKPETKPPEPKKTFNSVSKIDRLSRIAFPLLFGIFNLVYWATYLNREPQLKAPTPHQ
T1 sequence (P63138 25-474 limits assumed): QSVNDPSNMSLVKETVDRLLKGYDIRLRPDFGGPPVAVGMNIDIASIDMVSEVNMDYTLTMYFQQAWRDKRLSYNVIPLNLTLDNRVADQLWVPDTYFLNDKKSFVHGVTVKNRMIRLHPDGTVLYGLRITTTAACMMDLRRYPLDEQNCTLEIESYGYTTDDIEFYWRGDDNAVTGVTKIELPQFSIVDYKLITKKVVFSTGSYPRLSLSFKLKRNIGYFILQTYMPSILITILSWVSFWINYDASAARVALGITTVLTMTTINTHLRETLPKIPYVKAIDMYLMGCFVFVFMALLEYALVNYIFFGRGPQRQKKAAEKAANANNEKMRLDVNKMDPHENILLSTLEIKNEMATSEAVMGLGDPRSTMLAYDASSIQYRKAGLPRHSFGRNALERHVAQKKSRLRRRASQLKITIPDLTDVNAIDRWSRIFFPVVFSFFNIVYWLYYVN
Text: Ovaries removed from sexually mature Xenopus laevis frogs were bluntly dissected to remove surrounding connective tissue and then digested with 0.2% type I collagenase in an oocyte Ringer's solution. Once free from thecal cells and connective tissue, individual oocytes were rinsed, sorted, and stored in a modified Barth's solution (R. Brosnan et al., […]. 103, (2006): 86; L. Yang, P. S. Milutinovic, […]. Sonner, […]. 105, (2007): 393; […]. Fukushima, & […]. 44, (2017): 577; […], Pharmacology 103, (2019): 10). Heteromeric GABAA receptors were expressed in oocytes by blind intranuclear injection of 1 ng DNA encoding the human al (GABRA1) and rat B2 (GABRB2) subunits in a 1:1 ratio. NMDA receptors were expressed by intracytoplasmic injection of 5 ng RNA encoding rat NR1 (GRIN1) and rat NR2a (GRIN2A) subunits in a 1:1 ratio. Nax 1.2 channels were expressed by injection of 5 ng RNA encoding the human SCN2A gene. Two-electrode voltage clamp studies of GABAA receptors were carried out in a 0.25-mL linear perfusion chamber. Perfusates were delivered by using a syringe pump at 1.5 mL/min using gastight glass syringes and polytetrafluoroethylene tubing. […] King Precision Glass, Claremont, CA, USA) connected to separate […] (Axon Instruments HS2A; Molecular Devices, San Jose, CA, USA) through which voltage was clamped at -80 mV and current was passed via a computer-controlled amplifier (Axon Instruments GeneClamp 500B; Molecular Devices). Oocytes were perfused with frog Ringer's (FR) solution containing 115 mM NaCl, 2.5 mM KCl, 1.8 mM CaCl2), and 10 mM HEPES prepared from ACS-grade chemicals and 18.2 MΩ H2O, filtered and pH adjusted to 7.4. […] After 30 s, the perfusate was switched back to FR solution. This process was repeated until a stable baseline response was achieved. Next, FR containing either L-carvone (99%; Sigma-Aldrich, St. Louis, MO, USA) or methyl salicylate (>99%; Sigma-Aldrich) at the test concentration was used to perfuse the oocyte for 1.5 min, and then the oocyte was perfused with FR+GABA solution containing this same drug and concentration for 30 s. […] Uninjected oocytes served as negative controls. Only one drug and concentration were studied per oocyte. […] Percent change in current was calculated as follows: [formula] • where IB is the baseline pre-drug current peak and ID is the drug current peak. For each drug and ion channel, data were fit to a Hill equation using nonlinear regression with sequential quadratic programming and bootstrap estimates of parameter standard errors (SPSS, v. 27; IBM, Armonk, NY, USA). In the model, maximum drug inhibition (Imax) was constrained to not be less than -100%. Initial parameter estimates were seeded with values based on visual inspection of respective dose-response curves in order to facilitate model convergence.

[2] = Plasma concentration during IV infusion anesthesia (LC-MS); assay type: in vivo, rat
Protocol: Lateral tail veins were catheterized in eight, 70-day-old, male, Sprague Dawley rats weighing 309±6 g. A 10% solution of L-carvone or methyl salicylate in 20% […]® was each administered IV to 8 rats (4 animals per drug treatment) by using a syringe pump at a rate of 12 mL/h. When rats lost their righting reflex and were unresponsive to a tail clamp, a midline laparotomy was performed, the abdominal aorta catheterized, and the rat exsanguinated. Blood was collected in a heparin tube and centrifuged; plasma was separated and stored in cryogenic tubes at −80° C. until analysis.
Serum calibrations were prepared by dilution of working standard solutions of methyl salicylate and L-carvone with drug-free rat serum (Innovative Research, Novi, MI, USA) to concentrations ranging from 0.05 to 500 μg/mL. Calibration curves and negative control samples were prepared fresh for each quantitative assay. In addition, quality control samples (drug-free rat serum fortified with analyte at 3-4 concentrations within the standard curve) were included as an additional check of accuracy.
Prior to analysis, 100 μL of each serum sample was diluted with 100 μL of acetonitrile (ACN):1 M acetic acid (9:1, v:v) and 50 μL of methanol to precipitate proteins. The samples were vortexed for 2 min to mix, refrigerated for 20 min, vortexed for an additional 1 min, centrifuged (4,300 rpm/3, 102 g) for 10 min at 4 °C, and 10 μL injected into the liquid chromatography tandem mass spectrometry system.
Quantitative analysis was performed on an LTQ XL Orbitrap mass spectrometer (Thermo Scientific, San Jose, CA, USA) coupled with a Waters Acquity UPLC (Milford, MA, USA). […] Detection and quantification were conducted using full-scan accurate mass from 145 to 160 (m/z). […]
The precision and accuracy of the assay was determined by assaying quality control samples in replicates (n=6). […] The technique was optimized to provide limits of quantitation of 0.5 μg/mL and 0.05 μg/mL and limits of detection of approximately 0.1 μg/mL and 0.025 μg/mL for methyl salicylate and L-carvone, respectively.

[3] = at the mean plasma concentration during IV infusion anesthesia in rats

Row | Molecule | potentiation of GABAA receptors [1, 3] | effect on GABAA receptor currents [1] | IC50 ([1]; high-affinity inhibitory site, 50 μM GABA, oocytes clamped at −80 mV, read-out: IC50, inhibition of GABAA receptor currents) | Hill coefficient, GABAA receptor potentiation site ([1]; low-affinity binding) | concentration for second positive allosteric GABAA site relative to high-affinity site ([1]; potentiation site vs inhibitory site) | EC50 ([1]; second site, high concentrations, read-out: median effective concentration, potentiation of GABAA currents) | mean plasma concentration (±SEM) during IV infusion ([2]; male, Sprague Dawley, rat, in vivo, iv) | GABAA receptor current at highest concentration ([1]; 10 mM drug) | inhibition of GABAA receptors [1, 3] | Hill coefficient, GABAA receptor inhibition ([1]; dose-response model) | plasma concentration relative to that for methyl salicylate ([2]; at the time general anesthesia was achieved) | mean plasma concentration (±SEM) during IV infusion ([2]; rats N=4, at loss of righting reflex and tail clamp response)
1 | COC(=O)c1ccccc1O [methyl salicylate] | 30% | potently inhibited; also recorded: biphasic effect | 0.11 µM and ~0.1 µM | less than 1 | about 50,000 times | 5300 µM | 2700 ± 400 µM |  |  |  |  | 
2 | L-carvone |  | dose-dependent inhibition |  |  |  |  |  | near or complete loss of channel currents; also recorded: almost entirely inhibited | 96% | ~1 | 3 times | 7900 ± 3000 µM
